Holding throughout (assay): AK assay 384-well format, Prestwick library screening
One test deals with E. coli. It is filed as cell-based, Escherichia coli. As to conditions: Escherichia coli, 3 h, 50 μM final drug concentration.
In test [1] the test system is A. baumannii strain 98-37-09. It is filed as cell-based, Acinetobacter baumannii. As to conditions: Acinetobacter baumannii, 983709, 3 h, 50 μM final drug concentration.
For the next test, the system named is P. aeruginosa. It is filed as cell-based, Pseudomonas aeruginosa. As to conditions: Pseudomonas aeruginosa, 3 h, 50 μM final drug concentration.
A further test deals with E. cloacae. It is filed as cell-based, Enterobacter cloacae. As to conditions: Enterobacter cloacae, 3 h, 50 μM final drug concentration.
Test [2] relates to S. aureus strain USA300-0114. It is filed as cell-based, Staphylococcus aureus. As to conditions: Staphylococcus aureus, USA300, 3 h, 50 μM final drug concentration.
For a further test, the system named is K. pneumoniae. It is filed as cell-based, Klebsiella pneumoniae. As to conditions: Klebsiella pneumoniae, 3 h, 50 μM final drug concentration.
The next test has as its system E. faecium. It is filed as cell-based, Enterococcus faecium. As to conditions: Enterococcus faecium, 3 h, 50 μM final drug concentration.
Setting [3] is: cutoff for positive-scoring molecules 3-fold increase, read-out: AK-based Prestwick Library Screening Results, E. coli (fold increase in extracellular AK activity).
The mark [4] stands for this setting: cutoff for positive-scoring molecules 3-fold increase, read-out: AK-based Prestwick Library Screening Results, A. baumannii (fold increase in extracellular AK activity).
Setting [5] is: cutoff for positive-scoring molecules 3-fold increase, read-out: AK-based Prestwick Library Screening Results, P. aeruginosa (fold increase in extracellular AK activity).
The mark [6] stands for this setting: cutoff for positive-scoring molecules 3-fold increase, read-out: AK-based Prestwick Library Screening Results, E. cloacae (fold increase in extracellular AK activity).
[7] abbreviates: cutoff for positive-scoring molecules 3-fold increase, read-out: AK-based Prestwick Library Screening Results, S. aureus (fold increase in extracellular AK activity).
The mark [8] stands for this setting: cutoff for positive-scoring molecules 3-fold increase, read-out: AK-based Prestwick Library Screening Results, K. pneumoniae (fold increase in extracellular AK activity).
[9] abbreviates: cutoff for positive-scoring molecules 3-fold increase, read-out: AK-based Prestwick Library Screening Results, E. faecium (fold increase in extracellular AK activity).
Where [10] appears, read: planktonic E. coli, cutoff for positive-scoring molecules 3-fold increase, read-out: AK-based Prestwick Library Screening Results, E. coli (increase in extracellular AK activity).
The mark [11] stands for this setting: planktonic A. baumannii, cutoff for positive-scoring molecules 3-fold increase, read-out: AK-based Prestwick Library Screening Results, A. baumannii (increase in extracellular AK activity).
Where [12] appears, read: planktonic P. aeruginosa, cutoff for positive-scoring molecules 3-fold increase, read-out: AK-based Prestwick Library Screening Results, P. aeruginosa (increase in extracellular AK activity).
Setting [13] is: planktonic E. cloacae, cutoff for positive-scoring molecules 3-fold increase, read-out: AK-based Prestwick Library Screening Results, E. cloacae (increase in extracellular AK activity).
The mark [14] stands for this setting: planktonic S. aureus, cutoff for positive-scoring molecules 3-fold increase, read-out: AK-based Prestwick Library Screening Results, S. aureus (increase in extracellular AK activity).
Setting [15] is: planktonic K. pneumoniae, cutoff for positive-scoring molecules 3-fold increase, read-out: AK-based Prestwick Library Screening Results, K. pneumoniae (increase in extracellular AK activity).
Setting [16] is: planktonic E. faecium, cutoff for positive-scoring molecules 3-fold increase, read-out: AK-based Prestwick Library Screening Results, E. faecium (increase in extracellular AK activity).
The mark [17] stands for this setting: planktonic, cutoff for positive-scoring molecules 3-fold increase, read-out: AK-based Prestwick Library Screening Results, E. coli (fold increase in extracellular AK activity).
[18] abbreviates: planktonic, cutoff for positive-scoring molecules 3-fold increase, read-out: AK-based Prestwick Library Screening Results, A. baumannii (fold increase in extracellular AK activity).
Where [19] appears, read: planktonic, cutoff for positive-scoring molecules 3-fold increase, read-out: AK-based Prestwick Library Screening Results, P. aeruginosa (fold increase in extracellular AK activity).
The mark [20] stands for this setting: planktonic, cutoff for positive-scoring molecules 3-fold increase, read-out: AK-based Prestwick Library Screening Results, E. cloacae (fold increase in extracellular AK activity).
Setting [21] is: planktonic, cutoff for positive-scoring molecules 3-fold increase, read-out: AK-based Prestwick Library Screening Results, S. aureus (fold increase in extracellular AK activity).
[22] abbreviates: planktonic, cutoff for positive-scoring molecules 3-fold increase, read-out: AK-based Prestwick Library Screening Results, K. pneumoniae (fold increase in extracellular AK activity).
[23] abbreviates: planktonic, cutoff for positive-scoring molecules 3-fold increase, read-out: AK-based Prestwick Library Screening Results, E. faecium (fold increase in extracellular AK activity).

SMILES strings stand for the structures. Counter-ions that a name gives are not always drawn. Like-named read-outs stand apart in the source and are kept apart here.

As to `CCCCOc1ccc(OCCCN2CCOCC2)cc1` [Pramoxine hydrochloride], the fold induction at 50 µM in the test with E. coli (setting [3]) was 1.1; in test [1] (setting [4]) it was 1.1; in the test on P. aeruginosa (setting [5]), 1.2; in the test with E. cloacae (setting [6]) it was 1.5; in test [2] (setting [7]) it was 1.3; with K. pneumoniae (setting [8]), 1.1. For the same compound, the fold induction at 50 µM with E. faecium (setting [9]) turned out to be 1.
For `O=C(O)CCC(=O)Nc1ccc(S(=O)(=O)Nc2nccs2)cc1` [Succinylsulfathiazole], the fold induction at 50 µM with E. coli (setting [3]) was determined as 1.4; in test [1] (setting [4]), 1.3; in the test with P. aeruginosa (setting [5]), 1.1; with E. cloacae (setting [6]), 1.4; in test [2] (setting [7]) it was 1.3; in the test on K. pneumoniae (setting [8]), 1.1. For the same compound, the fold induction at 50 µM in the test with E. faecium (setting [9]) came out at 1.
Consider `Cc1ccc(/C(=C\CN2CCCC2)c2ccccn2)cc1` [Triprolidine hydrochloride], for which the fold induction at 50 µM in the test with E. coli (384-well format, cutoff for positive-scoring molecules 3-fold increase, read-out: AK-based Prestwick Library Screening Results, E. coli (increase in extracellular AK activity)) came out at 1; in test [1] (384-well format, cutoff for positive-scoring molecules 3-fold increase, read-out: AK-based Prestwick Library Screening Results, A. baumannii (increase in extracellular AK activity)) it was 0.9; in the test on P. aeruginosa (384-well format, cutoff for positive-scoring molecules 3-fold increase, read-out: AK-based Prestwick Library Screening Results, P. aeruginosa (increase in extracellular AK activity)) it was 1; with E. cloacae (384-well format, cutoff for positive-scoring molecules 3-fold increase, read-out: AK-based Prestwick Library Screening Results, E. cloacae (increase in extracellular AK activity)) it was 1; in test [2] (384-well format, cutoff for positive-scoring molecules 3-fold increase, read-out: AK-based Prestwick Library Screening Results, S. aureus (increase in extracellular AK activity)), 0.6; in the test on K. pneumoniae (384-well format, cutoff for positive-scoring molecules 3-fold increase, read-out: AK-based Prestwick Library Screening Results, K. pneumoniae (increase in extracellular AK activity)), 0.7. The fold induction at 50 µM in the test with E. faecium (384-well format, cutoff for positive-scoring molecules 3-fold increase, read-out: AK-based Prestwick Library Screening Results, E. faecium (increase in extracellular AK activity)) came out at 1.
On to `CC(=O)N(CC(O)CO)c1c(I)c(C(=O)NCC(O)CO)c(I)c(C(=O)NCC(O)CO)c1I` (stereo not drawn) [Iohexol], for which the fold induction at 50 µM was 1 in the test on E. coli (setting [10]); 0.9 in test [1] (setting [11]); 0.8 with P. aeruginosa (setting [12]); 1.1 in the test on E. cloacae (setting [13]); 0.7 in test [2] (setting [14]); 0.7 with K. pneumoniae (setting [15]). For the same compound, in the test on E. faecium (setting [16]), the fold induction at 50 µM amounted to 0.9.
With `NS(=O)(=O)c1cc(Cl)c(Cl)c(S(N)(=O)=O)c1` [Dichlorphenamide], the fold induction at 50 µM worked out at 0.6 with E. coli (setting [17]); 0.5 in test [1] (setting [18]); 0.5 in the test on P. aeruginosa (setting [19]); 0.5 with E. cloacae (setting [20]); 0.5 in test [2] (setting [21]); 0.5 in the test with K. pneumoniae (setting [22]). For the same compound, the fold induction at 50 µM in the test with E. faecium (setting [23]) was found to be 1.1.
Regarding `CN(C)C(=O)Oc1cc(OC(=O)N(C)C)cc(C(O)CNC(C)(C)C)c1` (stereo not drawn) [Bambuterol hydrochloride], the fold induction at 50 µM in the test on E. coli (setting [10]) came out at 1.3; in test [1] (setting [11]) it was 1; in the test on P. aeruginosa (setting [12]), 1.2; with E. cloacae (setting [13]), 1.2; in test [2] (setting [14]) it was 1.2; in the test on K. pneumoniae (setting [15]) it was 0.9. The fold induction at 50 µM with E. faecium (setting [16]) is 1.1.
Turning to `NC(=O)c1ccc[n+]([C@@H]2O[C@H](COP(=O)([O-])OP(=O)(O)OC[C@H]3O[C@@H](n4cnc5c(N)ncnc54)[C@H](O)[C@@H]3O)[C@@H](O)[C@H]2O)c1` [Nadide], the fold induction at 50 µM in the test with E. coli (setting [17]) was 0.9; in test [1] (setting [18]) it was 0.8; with P. aeruginosa (setting [19]), 0.8; in the test with E. cloacae (setting [20]), 0.9; in test [2] (setting [21]), 0.6; in the test on K. pneumoniae (setting [22]), 0.7. Moreover, in the test on E. faecium (setting [23]), the fold induction at 50 µM was determined as 0.9.
For the compound `CCN1CCCC1CNC(=O)c1cc(S(N)(=O)=O)ccc1OC` (stereo not drawn) [Sulpiride], the fold induction at 50 µM in the test with E. coli (planktonic E. coli, 384-well, […], read-out: AK-based Prestwick Library Screening Results: E. coli (increase in extracellular AK activity)) was determined as 1; in test [1] (planktonic A. baumannii, 384-well, […], read-out: AK-based Prestwick Library Screening Results: A. baumannii (increase in extracellular AK activity)) it was 1; in the test with P. aeruginosa (planktonic P. aeruginosa, 384-well, […], read-out: AK-based Prestwick Library Screening Results: P. aeruginosa (increase in extracellular AK activity)) it was 1.1; in the test with E. cloacae (planktonic E. cloacae, 384-well, […], read-out: AK-based Prestwick Library Screening Results: E. cloacae (increase in extracellular AK activity)), 1.6; in test [2] (planktonic S. aureus, 384-well, […], read-out: AK-based Prestwick Library Screening Results: S. aureus (increase in extracellular AK activity)) it was 1.1; in the test on K. pneumoniae (planktonic K. pneumoniae, 384-well, […], read-out: AK-based Prestwick Library Screening Results: K. pneumoniae (increase in extracellular AK activity)), 1. The fold induction at 50 µM with E. faecium (planktonic E. faecium, 384-well, […], read-out: AK-based Prestwick Library Screening Results: E. faecium (increase in extracellular AK activity)) was 1.
As for `O=C1C=C2C=C[C@@H]3C[C@@]2(O1)[C@H]1CCCCN31` [Securinine], the fold induction at 50 µM with E. coli ([…], read-out: AK-based Prestwick Library Screening Results, E. coli (fold increase in extracellular AK activity)) is 1.3; in test [1] ([…], read-out: AK-based Prestwick Library Screening Results, A. baumannii (fold increase in extracellular AK activity)) it was 1.1; in the test on P. aeruginosa ([…], read-out: AK-based Prestwick Library Screening Results, P. aeruginosa (fold increase in extracellular AK activity)) it was 1.2; in the test on E. cloacae ([…], read-out: AK-based Prestwick Library Screening Results, E. cloacae (fold increase in extracellular AK activity)) it was 1.6; in test [2] ([…], read-out: AK-based Prestwick Library Screening Results, S. aureus (fold increase in extracellular AK activity)) it was 1.1; in the test with K. pneumoniae ([…], read-out: AK-based Prestwick Library Screening Results, K. pneumoniae (fold increase in extracellular AK activity)) it was 0.8. Besides, the fold induction at 50 µM in the test on E. faecium ([…], read-out: AK-based Prestwick Library Screening Results, E. faecium (fold increase in extracellular AK activity)) amounted to 1.

(Values after US10004701B2, “Methods and compositions for treating infection” (UNIVERSITY OF ROCHESTER, priority 2012, dated 2018).)
